Assay results taken from the NIST ThermoML archive (doi:10.1016/j.jct.2016.10.007).
± gives the expanded uncertainty stated by the source.

Assays:
[1] = Wilhemy plate method
[2] = wn = mass fraction of the nth substance listed; details: Wilhemy plate method

CCN(CC)CCO [(diethylamino)ethanol]
[1]
Details	surface tension liquid-gas [mN/m]
283.2 K	29.7 ± 0.3
293.2 K	28.6 ± 0.3
303.2 K	27.7 ± 0.3
313.2 K	26.4 ± 0.3
323.2 K	25.2 ± 0.3

CCN(CC)CCO [(diethylamino)ethanol] + O
surface tension liquid-gas [mN/m], [2]
Details	303.2 K	313.2 K	323.2 K
w1 = 0.1	41.2 ± 0.4	39.2 ± 0.5	37.3 ± 0.5
w1 = 0.137	40.1 ± 0.6	–	–
w1 = 0.2	36.5 ± 0.3	34.7 ± 0.4	33.1 ± 0.4
w1 = 0.213	36.3 ± 0.3	–	–
w1 = 0.3	34.9 ± 0.3	33.2 ± 0.3	31.7 ± 0.3
w1 = 0.4	33.6 ± 0.3	32.1 ± 0.3	30.7 ± 0.3
w1 = 0.483	32.9 ± 0.3	–	–
w1 = 0.5	32.7 ± 0.3	31.2 ± 0.3	29.9 ± 0.3
w1 = 0.58	31.8 ± 0.3	–	–
w1 = 0.6	31.3 ± 0.4	29.8 ± 0.3	28.3 ± 0.3
w1 = 0.685	30.7 ± 0.4	–	–
w1 = 0.7	30.3 ± 0.4	28.7 ± 0.3	27.3 ± 0.3
w1 = 0.8	29.6 ± 0.3	28 ± 0.3	26.6 ± 0.3
w1 = 0.814	29.5 ± 0.3	–	–
w1 = 0.9	28.7 ± 0.3	27.3 ± 0.3	26 ± 0.3
w1 = 0.91	28.6 ± 0.3	–	–
w1 = 1	27.7 ± 0.3	26.4 ± 0.3	25.2 ± 0.3

O [water]
Details	surface tension liquid-gas [mN/m]
[1], 298.2 K	71.9 ± 0.2
